Holding throughout (type): biochemical
For one assay, the target named is Falcipain-2 (Plasmodium falciparum, UniProt Q8I6U4). Briefly: Falcipain-2 enzymatic assay (assay 1). The protocol:
(§1) Assay 1) Determination of Falcipain-2, Falcipain-3, Vivapain-2, Cathepsin K Cathepsin S, Cathepsin L, and Cathepsin B Proteolytic Catalytic Activity
(§2) Assays for Falcipain-2, Falcipain-3, and Vivapain-2 are carried out with parasitic recombinant enzymes. Cathepsins K, S, L, and B are carried out with human recombinant enzymes. Standard assay conditions for the determination of kinetic constants used a fluorogenic peptide substrate, typically H-D-VLR-AFC (Falcipain-2, Falcipain-3, Vivapain-2), Z-FR-AFC (Cathepsin K, L, B), or KQKLR-AMC (Cathepsin S) and are determined in 100 mM sodium acetate, pH 5.5, containing 10 mM DTT and 0.5 mM CHAPS (Falcipain-2, Falcipain-3, Vivapain-2), and 100 mM sodium acetate, pH 5.5, containing 5 mM L-cysteine, 1 mM CHAPS and 5 mM EDTA (Cathepsin K, L, B), or 50 mM MES, pH 6.5, containing 0.5 mM CHAPS, 10 mM L-CYS, 5 mM EDTA (Cathepsin S). Stock substrate solutions are prepared at 20 mM in DMSO. The activity assays contained 30 uM substrate (Falcipain-2, Falcipain-3, Vivapain-2), 20 uM substrate (Cathepsin K), 25 uM substrate (Cathepsin B), 5 uM substrate (Cathepsin L), and 30 uM substrate (Cathepsin S). All assays contained 1% DMSO. […] All assays are conducted at ambient temperature as end point assays being quenched after 60 minutes with the exception of Cathepsin S at 90 minutes, with 16.6 uM E-64 in 1% DMSO. Product formation (AFC or AMC) is determined from fluorescence (excitation at 405 nm; emission at 530 nm, AFC, or excitation at 360 nm; emission at 460 nm, AMC) monitored with a LJL Aquest (Molecular Devices) fluorescent plate reader. In the case of kinetic reads (used in mechanism of action studies), the reaction is not quenched but is read in the plate reader every 3 minutes for approximately 90 minutes. In addition, the mechanism of action studies for Falcipain-2 utilize Z-LR-AMC as the substrate. Product formation is determined from the fluorescence of AMC, measured with a LJL Acquest (Molecular Devices) fluorescent plate reader (excitation at 360 nm; emission at 460 nm).
(§3) Potential inhibitors are evaluated using the quenched read (endpoint) method. Assays are carried out in the presence of variable concentrations of test compound. Reactions are initiated by addition of enzyme and substrate to wells containing inhibitor stamped in 100% DMSO. For endpoint assays, the reaction is quenched with the addition of E64. Dose response data is fit to an IC50 curve with preset fitting tools according to equation 1:
(§4) y=a+(b−a)/(1+(10^x/10^c)^d) (1)
(§5) where y is the response at a particular inhibitor concentration x, a is the minimum response value, b is the maximum response value, c is the IC50, and d is the slope of the IC50 curve. Assuming the compound is a competitive inhibitor, the apparent KI can be calculated from IC50, as shown in equation 2: […]

The target in a further assay is Falcipain-3 (Plasmodium falciparum, UniProt Q8IIL0). In words: Falcipain-3 enzymatic assay (assay 1). How it is done:
as §1, §2, §3, §4, §5

The next assay deals with Cathepsin S (Homo sapiens, UniProt P25774). Briefly: Cathepsin S enzymatic assay (assay 1). To be noted: human recombinant enzyme, KQKLR-AMC substrate, pH 6.5. The protocol:
as §1, §2, §3, §4, §5

Another assay deals with T1, Cathepsin K (Homo sapiens, UniProt P43235).
T1 sequence (P43235 115-329): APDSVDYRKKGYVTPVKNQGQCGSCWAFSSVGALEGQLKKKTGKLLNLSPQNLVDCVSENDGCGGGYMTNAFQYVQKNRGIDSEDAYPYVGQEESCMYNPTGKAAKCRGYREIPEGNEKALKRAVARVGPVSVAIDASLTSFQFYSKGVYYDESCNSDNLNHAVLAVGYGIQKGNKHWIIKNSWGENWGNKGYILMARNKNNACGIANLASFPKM
Briefly: Cathepsin K enzymatic assay (assay 1). To be noted: human recombinant enzyme, Z-FR-AFC substrate, pH 5.5. How it is done:
as §1, §2, §3, §4, §5

Counter-ions that a name gives are not always drawn. Like-named read-outs stand apart in the source and are kept apart here.

This passage reports IC50 results from US20100009956A1, “NOVEL SUBSTITUTED PYRIMIDINES AS CYSTEINE PROTEASE INHIBITORS” (Glaxo Group Limited , a corporation, priority 2006, published 2010).

One may read the IC50 as the concentration that gives 50% inhibition.

Cathepsin S, sequence (P25774 115-331): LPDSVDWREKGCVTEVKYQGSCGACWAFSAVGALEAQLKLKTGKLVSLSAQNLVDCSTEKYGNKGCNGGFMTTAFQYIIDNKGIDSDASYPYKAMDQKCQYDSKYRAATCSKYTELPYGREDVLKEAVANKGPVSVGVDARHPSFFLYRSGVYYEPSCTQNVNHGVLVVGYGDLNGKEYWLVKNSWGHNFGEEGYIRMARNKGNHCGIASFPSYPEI
Falcipain-2, sequence (Q8I6U4 244-484): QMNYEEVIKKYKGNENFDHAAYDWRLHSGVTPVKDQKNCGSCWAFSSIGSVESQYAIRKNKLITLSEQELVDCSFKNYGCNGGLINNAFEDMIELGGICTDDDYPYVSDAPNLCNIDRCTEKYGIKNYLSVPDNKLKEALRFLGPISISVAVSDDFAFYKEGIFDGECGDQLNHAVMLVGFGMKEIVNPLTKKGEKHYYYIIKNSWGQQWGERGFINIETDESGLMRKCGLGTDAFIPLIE
Falcipain-3, sequence (Q8IIL0 243-492): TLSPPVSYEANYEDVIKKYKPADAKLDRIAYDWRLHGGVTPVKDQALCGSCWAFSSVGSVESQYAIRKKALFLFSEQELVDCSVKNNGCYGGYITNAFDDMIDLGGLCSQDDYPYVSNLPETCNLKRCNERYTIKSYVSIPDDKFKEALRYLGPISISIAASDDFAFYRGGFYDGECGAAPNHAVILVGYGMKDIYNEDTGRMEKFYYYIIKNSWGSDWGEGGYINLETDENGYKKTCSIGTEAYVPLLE

Turning to `CN(C)Cc1ccc(C(=O)NN(c2nc(C#N)ncc2Cl)C2CCCC2)cc1` [Example 54, N′-(5-chloro-2-cyano-4-pyrimidinyl)-N′-cyclopentyl-4-[(dimethylamino)methyl]benzohydrazide trifluoroacetate], the IC50 on Falcipain-2 was less than 1 nM; against Falcipain-3, 2.5 to 15 nM; at Cathepsin S it was less than 200 nM.
Take `CCCCCCN(C)Cc1ccc(C(=O)NN(c2nc(C#N)ncc2Cl)C2CCCC2)cc1` [Example 56, N′-(5-chloro-2-cyano-4-pyrimidinyl)-N′-cyclopentyl-4-{([hexyl(methyl)amino]methyl}benzohydrazide trifluoroacetate]: the results for the half-maximal inhibitory concentration (IC50) against Falcipain-2, on Falcipain-3 and at Cathepsin S were less than 1 nM, 2.5 to 15 nM and less than 200 nM, respectively.
For the compound `CN1CCC(CN2CCN(Cc3cccc(C(=O)NN(c4nc(C#N)ncc4Br)C4CCCCC4)c3)CC2)CC1` [Example 28, N′-(5-bromo-2-cyano-4-pyrimidinyl)-N′-cyclohexyl-3-({4-[(1-methyl-4-piperidinyl)methyl]-1-piperazinyl}methyl)benzohydrazide trifluoroacetate], the IC50 is less than 1 nM on Falcipain-2, 2.5 to 15 nM on Falcipain-3 and less than 1000 nM on Cathepsin S.
With `CN(CC(=O)N(C)C)Cc1ccc(C(=O)NN(c2nc(C#N)ncc2Cl)C2CCCC2)cc1` [Example 60, N^2-[(4-{[2-(5-chloro-2-cyano-4-pyrimidinyl)-2-cyclopentylhydrazino]carbonyl}phenyl)methyl]-N^1,N^1,N^2-trimethylglycinamide trifluoroacetate], the IC50 against Falcipain-2 was less than 1 nM; against Falcipain-3, 2.5 to 15 nM; at Cathepsin S it was less than 200 nM.
Consider `CN(CCC1OCCO1)Cc1ccc(C(=O)NN(c2nc(C#N)ncc2Cl)C2CCCC2)cc1` [Example 61, N′-(5-chloro-2-cyano-4-pyrimidinyl)-N′-cyclopentyl-4-{[[2-(1,3-dioxolan-2-yl)ethyl](methyl)amino]methyl}benzohydrazide trifluoroacetate], for which the IC50 was less than 1 nM against Falcipain-2, 2.5 to 15 nM against Falcipain-3 and less than 200 nM on Cathepsin S.
`CN1CCN(c2ccc(C(=O)NN(c3nc(C#N)ncc3Cl)C3CCCC3)cc2)CC1` [Example 52, N′-(5-chloro-2-cyano-4-pyrimidinyl)-N′-cyclopentyl-4-(4-methyl-1-piperazinyl)benzohydrazide trifluoroacetate]: the IC50 is less than 1 nM on Falcipain-2, 2.5 to 15 nM on Falcipain-3 and less than 200 nM on Cathepsin S.
With `CCN(CC)Cc1ccc(C(=O)NN(c2nc(C#N)ncc2Cl)C2CCCC2)cc1` [Example 66, N′-(5-chloro-2-cyano-4-pyrimidinyl)-N′-cyclopentyl-4-[(diethylamino)methyl]benzohydrazide trifluoroacetate], the half-inhibitory concentration (IC50) is less than 1 nM on Falcipain-2, 2.5 to 15 nM against Falcipain-3 and less than 200 nM on Cathepsin S.
Take `CCCN(C)Cc1ccc(C(=O)NN(c2nc(C#N)ncc2Cl)C2CCCC2)cc1` [Example 55, N′-(5-chloro-2-cyano-4-pyrimidinyl)-N′-cyclopentyl-4-{[methyl(propyl)amino]methyl}benzohydrazide trifluoroacetate]: the half-inhibitory concentration (IC50) against Falcipain-2 is less than 1 nM; at Falcipain-3, 2.5 to 15 nM; on Cathepsin S, less than 200 nM.
Taken in the same sequence, the figures for `CN(Cc1ccc(C(=O)NN(c2nc(C#N)ncc2Cl)C2CCCC2)cc1)C(C)(C)Cc1ccccc1` [Example 71, N′-(5-chloro-2-cyano-4-pyrimidinyl)-N′-cyclopentyl-4-{[(1,1-dimethyl-2-phenylethyl)(methyl)amino]methyl}benzohydrazide trifluoroacetate] were less than 1 nM, 2.5 to 15 nM and less than 200 nM.
The matching figures for `CCN(Cc1ccc(C(=O)NN(c2nc(C#N)ncc2Cl)C2CCCC2)cc1)C1CCCCC1` [Example 69, N′-(5-chloro-2-cyano-4-pyrimidinyl)-4{[cyclohexyl(ethyl)amino]methyl}-N′-cyclopentylbenzohydrazide trifluoroacetate]: less than 1 nM, 2.5 to 15 nM and less than 200 nM.
Regarding `CN(Cc1ccc(C(=O)NN(c2nc(C#N)ncc2Cl)C2CCCC2)cc1)C1CCC2(CC1)OCC(C)(C)CO2` [Example 65, N′-(5-chloro-2-cyano-4-pyrimidinyl)-N′-cyclopentyl-4-{[(3,3-dimethyl-1,5-dioxaspiro[5.5]undec-9-yl)(methyl)amino]methyl}benzohydrazide trifluoroacetate], the results for the half-maximal inhibitory concentration (IC50) against Falcipain-2, against Falcipain-3 and at Cathepsin S were 1 to 2.5 nM, 2.5 to 15 nM and less than 200 nM, respectively.
For `CN(Cc1ccc(C(=O)NN(c2nc(C#N)ncc2Cl)C2CCCC2)cc1)C1CCCCC1` [Example 53, N′-(5-chloro-2-cyano-4-pyrimidinyl)-4-{[cyclohexyl(methyl)amino]methyl}-N′-cyclopentylbenzohydrazide trifluoroacetate], the IC50 against Falcipain-2 was less than 1 nM; on Falcipain-3 it was 2.5 to 15 nM; on Cathepsin S, less than 200 nM.
As for `CC(=O)N1CCC(N(NC(=O)c2ccc(CN3CCC(N4CCN(C)CC4)CC3)cc2)c2nc(C#N)ncc2Br)CC1` [Example 38, N′-(1-acetyl-4-piperidinyl)-N′-(5-bromo-2-cyano-4-pyrimidinyl)-4-{[4-(4-methyl-1-piperazinyl)-1-piperidinyl]methyl}benzohydrazide trifluoroacetate], the concentration for half-maximal inhibition (IC50) against Falcipain-2 was less than 1 nM; at Falcipain-3 (parasitic recombinant enzyme, H-D-VLR-AFC substrate, pH 5.5, endpoint read, read-out: Falcipain-3 IC50), 2.5 to 15 nM; on Cathepsin S it was less than 200 nM.
Turning to `CN(CCCc1ccccc1)Cc1ccc(C(=O)NN(c2nc(C#N)ncc2Cl)C2CCCC2)cc1` [Example 64, N′-(5-chloro-2-cyano-4-pyrimidinyl)-N′-cyclopentyl-4-{[methyl(3-phenylpropyl)amino]methyl}benzohydrazide trifluoroacetate], the half-maximal inhibitory concentration (IC50) was less than 1 nM at Falcipain-2, 2.5 to 15 nM on Falcipain-3 and less than 200 nM at Cathepsin S.
For `CN1CCCC(CN2CCN(Cc3ccc(C(=O)NN(c4nc(C#N)ncc4Br)C4CCCC4)cc3)CC2)C1` (stereo not drawn) [Example 8, N′-(5-bromo-2-cyano-4-pyrimidinyl)-N′-cyclopentyl-4-({4-[(1-methyl-3-piperidinyl)methyl]-1-piperazinyl}methyl)benzohydrazide trifluoroacetate], the IC50 is less than 1 nM at Falcipain-2, 2.5 to 15 nM against Falcipain-3 and less than 1.5 nM at Cathepsin K.
For the compound `CN1CCN(C(=O)C2CCN(Cc3cccc(C(=O)NN(c4nc(C#N)ncc4Br)C4CCCCC4)c3)CC2)CC1` [Example 23, N′-(5-bromo-2-cyano-4-pyrimidinyl)-N′-cyclohexyl-3-({4-[(4-methyl-1-piperazinyl)carbonyl]-1-piperidinyl}methyl)benzohydrazide trifluoroacetate], the IC50 is less than 1 nM on Falcipain-2, 2.5 to 15 nM against Falcipain-3 and less than 1.5 nM at Cathepsin K.
Take `N#Cc1ncc(Br)c(N(NC(=O)c2ccc(CN3CCC(O)CC3)cc2)C2CCCCC2)n1` [Example 21, N′-(5-bromo-2-cyano-4-pyrimidinyl)-N′-cyclohexyl-4-[(4-hydroxy-1-piperidinyl)methyl]benzohydrazide trifluoroacetate]: the half-inhibitory concentration (IC50) on Falcipain-2 is less than 1 nM; against Falcipain-3 it was 2.5 to 15 nM; at Cathepsin K, less than 1.5 nM.
